According to ChEMBL document CHEMBL1142897, “Synthesis, characterization and antimicrobial activity of Fe(II), Zn(II), Cd(II) and Hg(II) complexes with 2,6-bis(benzimidazol-2-yl) pyridine ligand” (2007):

Tests used:
Staphylococcus aureus [1] = assay: Antibacterial activity against Staphylococcus aureus after 72 hrs by disk diffusion method; type: functional
Klebsiella pneumoniae [2] = assay: Antibacterial activity against Klebsiella pneumoniae after 72 hrs by disk diffusion method; type: functional
Bacillus cereus [3] = assay: Antibacterial activity against Bacillus cereus after 72 hrs by disk diffusion method; type: functional
Micrococcus luteus [4] = assay: Antibacterial activity against Micrococcus luteus after 72 hrs by disk diffusion method; type: functional
Proteus vulgaris [5] = assay: Antibacterial activity against Proteus vulgaris after 72 hrs by disk diffusion method; type: functional
[6] = system: Mycolicibacterium smegmatis; assay: Antibacterial activity against Mycobacterium smegmatis after 72 hrs by disk diffusion method; type: functional
Listeria monocytogenes [7] = assay: Antibacterial activity against Listeria monocytogenes after 72 hrs by disk diffusion method; type: functional
Pseudomonas aeruginosa [8] = assay: Antibacterial activity against Pseudomonas aeruginosa after 72 hrs by disk diffusion method; type: functional
Escherichia coli [9] = assay: Antibacterial activity against Escherichia coli after 72 hrs by disk diffusion method; type: functional
Candida albicans [10] = assay: Antifungal activity against Candida albicans after 24 hrs by disk diffusion method; type: functional
Kluyveromyces marxianus [11] = assay: Antifungal activity against Kluyveromyces fragilis after 24 hrs by disk diffusion method; type: functional
Rhodotorula mucilaginosa [12] = assay: Antifungal activity against Rhodotorula rubra after 24 hrs by disk diffusion method; type: functional
[13] = system: Hanseniaspora guilliermondii; assay: Antifungal activity against Hanseniaspora guilliermondii after 24 hrs by disk diffusion method; type: functional
Debaryomyces hansenii [14] = assay: Antifungal activity against Debaryomyces hansenii after 24 hrs by disk diffusion method; type: functional
Escherichia coli [15] = assay: Antibacterial activity against Escherichia coli after 24 hrs by dilution method; type: functional, organism-based
Staphylococcus aureus [16] = assay: Antibacterial activity against Staphylococcus aureus after 24 hrs by dilution method; type: functional, organism-based
Klebsiella pneumoniae [17] = assay: Antibacterial activity against Klebsiella pneumoniae after 24 hrs by dilution method; type: functional, organism-based
Bacillus cereus [18] = assay: Antibacterial activity against Bacillus cereus after 24 hrs by dilution method; type: functional, organism-based
Micrococcus luteus [19] = assay: Antibacterial activity against Micrococcus luteus after 24 hrs by dilution method; type: functional, organism-based
Proteus vulgaris [20] = assay: Antibacterial activity against Proteus vulgaris after 24 hrs by dilution method; type: functional, organism-based
[21] = system: Mycolicibacterium smegmatis; assay: Antibacterial activity against Mycobacterium smegmatis after 24 hrs by dilution method; type: functional, organism-based
Listeria monocytogenes [22] = assay: Antibacterial activity against Listeria monocytogenes after 24 hrs by dilution method; type: functional, organism-based
Pseudomonas aeruginosa [23] = assay: Antibacterial activity against Pseudomonas aeruginosa after 24 hrs by dilution method; type: functional, organism-based
Kluyveromyces marxianus [24] = assay: Antifungal activity against Kluyveromyces fragilis after 24 hrs by dilution method; type: functional, organism-based
Rhodotorula mucilaginosa [25] = assay: Antifungal activity against Rhodotorula rubra after 24 hrs by dilution method; type: functional, organism-based
Candida albicans [26] = assay: Antifungal activity against Candida albicans after 24 hrs by dilution method; type: functional, organism-based
[27] = system: Hanseniaspora guilliermondii; assay: Antifungal activity against Hanseniaspora guilliermondii after 24 hrs by dilution method; type: functional, organism-based
Debaryomyces hansenii [28] = assay: Antifungal activity against Debaryomyces hansenii after 24 hrs by dilution method; type: functional, organism-based

Compound | inhibition zone (IZ) (Staphylococcus aureus [1]) | inhibition zone (IZ) (Klebsiella pneumoniae [2]) | inhibition zone (IZ) (Bacillus cereus [3]) | inhibition zone (IZ) (Micrococcus luteus [4]) | inhibition zone (IZ) (Proteus vulgaris [5]) | inhibition zone (IZ) [6] | inhibition zone (IZ) (Listeria monocytogenes [7]) | inhibition zone (IZ) (Pseudomonas aeruginosa [8]) | inhibition zone (IZ) (Escherichia coli [9]) | inhibition zone (IZ) (Kluyveromyces marxianus [11]) | inhibition zone (IZ) (Rhodotorula mucilaginosa [12]) | inhibition zone (IZ) [13] | inhibition zone (IZ) (Debaryomyces hansenii [14]) | also measured
CC1(C)S[C@@H]2[C@H](NC(=O)[C@H](N)c3ccccc3)C(=O)N2[C@H]1C(=O)O [AMPICILLIN] | 16 mm | 14 mm | 12 mm | 32 mm | 16 mm | 21 mm | 12 mm | 10 mm | 12 mm | – | – | – | – | –
CO/N=C(\C(=O)N[C@@H]1C(=O)N2C(C(=O)O)=C(COC(C)=O)CS[C@H]12)c1csc(N)n1 [CEFOTAXIME] | 12 mm | 13 mm | 14 mm | 32 mm | 18 mm | 11 mm | 16 mm | 54 mm | 10 mm | – | – | – | – | –
Clc1ccccc1C(c1ccccc1)(c1ccccc1)n1ccnc1 [CLOTRIMAZOLE] | – | – | – | – | – | – | – | – | – | 18 mm | 16 mm | 22 mm | 18 mm | inhibition zone (IZ) (Candida albicans [10]): 15 mm
CC(=O)N1CCN(c2ccc(OCC3COC(Cn4ccnc4)(c4ccc(Cl)cc4Cl)O3)cc2)CC1 (configuration not stated) [KETOCONAZOLE] | – | – | – | – | – | – | – | – | – | 16 mm | 22 mm | 24 mm | 14 mm | inhibition zone (IZ) (Candida albicans [10]): 21 mm
CC1COc2c(N3CCN(C)CC3)c(F)cc3c(=O)c(C(=O)O)cn1c23 (configuration not stated) [OFLOXACIN] | 24 mm | 28 mm | 30 mm | 28 mm | 28 mm | 32 mm | 30 mm | 44 mm | 30 mm | – | – | – | – | –
CC1(C)S[C@@H]2[C@H](NC(=O)Cc3ccccc3)C(=O)N2[C@H]1C(=O)O [PENICILLIN G] | 13 mm | 18 mm | 14 mm | 36 mm | 10 mm | 15 mm | 10 mm | 8 mm | 18 mm | – | – | – | – | –
CN(C)[C@@H]1C(O)=C(C(N)=O)C(=O)[C@@]2(O)C(O)=C3C(=O)c4c(O)cccc4[C@@](C)(O)[C@H]3C[C@@H]12 [TETRACYCLINE] | 26 mm | 30 mm | 25 mm | 22 mm | 26 mm | 24 mm | 28 mm | 34 mm | 28 mm | – | – | – | – | –
CN[C@H](CC(C)C)C(=O)N[C@H]1C(=O)N[C@@H](CC(N)=O)C(=O)N[C@H]2C(=O)N[C@H]3C(=O)N[C@H](C(=O)N[C@H](C(=O)O)c4cc(O)cc(O)c4-c4cc3ccc4O)[C@H](O)c3ccc(c(Cl)c3)Oc3cc2cc(c3O[C@@H]2O[C@H](CO)[C@@H](O)[C@H](O)[C@H]2O[C@H]2C[C@](C)(N)[C@H](O)[C@H](C)O2)Oc2ccc(cc2Cl)[C@H]1O [VANCOMYCIN] | 13 mm | 22 mm | 18 mm | 34 mm | 20 mm | 20 mm | 26 mm | 10 mm | 22 mm | – | – | – | – | –
GENTAMICIN | – | – | – | – | – | – | – | – | – | – | – | – | – | MIC (Escherichia coli [15]): 6.25 µg/mL; MIC (Staphylococcus aureus [16]): 25 µg/mL; MIC (Klebsiella pneumoniae [17]): 6.25 µg/mL; MIC (Bacillus cereus [18]): 6.25 µg/mL; MIC (Micrococcus luteus [19]): 25 µg/mL; MIC (Proteus vulgaris [20]): 6.25 µg/mL; MIC [21]: 12.5 µg/mL; MIC (Listeria monocytogenes [22]): 12.5 µg/mL; MIC (Pseudomonas aeruginosa [23]): 6.25 µg/mL
NYSTATIN | – | – | – | – | – | – | – | – | – | 18 mm | 18 mm | 21 mm | 16 mm | MIC (Kluyveromyces marxianus [24]): 6.25 µg/mL; MIC (Rhodotorula mucilaginosa [25]): 6.25 µg/mL; MIC (Candida albicans [26]): 3.12 µg/mL; MIC [27]: 3.12 µg/mL; MIC (Debaryomyces hansenii [28]): 12.5 µg/mL
